Test results taken from ChEMBL document CHEMBL5338793, “Discovery of Pyrimidinediamine Derivatives as Potent Methuosis Inducers for the Treatment of Triple-Negative Breast Cancer” (J Med Chem, 2023).
pIC50: −log10 of the molar value.

Legend:
[1] = tested on: HCC1806; test: Antiproliferative activity against human HCC1806 cells assessed as inhibition of cell proliferation at 1 uM incubated for 24 hrs by SRB assay relative to control; assay type: functional
[2] = tested on: HCC1806; test: Antiproliferative activity against human HCC1806 cells assessed as inhibition of cell proliferation at 2 uM incubated for 24 hrs by SRB assay relative to control; assay type: functional
[3] = tested on: HCC1806; test: Antiproliferative activity against human HCC1806 cells assessed as inhibition of cell proliferation incubated for 24 hrs by SRB assay; assay type: functional, cell-based; conditions: HCC1806, 24 h
[4] = tested on: 184B5; test: Cytotoxicity against human 184B5 cells assessed as reduction in cell viability at 2 uM incubated for 24 hrs by SRB assay; assay type: toxicity, cell-based; conditions: 184b5, 24 h
[5] = tested on: HCC1806; test: Induction of morphological changes in human HCC1806 cells assessed as rate of intracellular vacuolization at 1 uM incubated for 24 hrs by microscopic analysis relative to control; assay type: functional

Row | pIC50 [3] | Compound | inhibition at 1 µM [1] | inhibition at 2 µM [2] | Activity [4] | Activity [5]
1 |  | COc1cnc(N2CCNCC2)nc1Nc1ccc(NC(=O)Cc2cccs2)cc1C(F)(F)F | 6.92% |  |  | 
2 |  | COc1cnc(N2CCNCC2)nc1Nc1ccc(NC(=O)c2ccc3ccccc3n2)cc1C(F)(F)F | 13.3% |  |  | 
3 |  | COc1cc(Nc2cc(N3CCNCC3)ncn2)ccc1NC(=O)c1cccc(Br)n1 | 11.5% |  |  | 
4 |  | COc1cnc(N2CCNCC2)nc1Nc1ccc(NC(=O)c2cccc(Br)n2)cc1OC(F)(F)F | 84.8% |  |  | 
5 | 6.06 | COc1cnc(N2CCNCC2)nc1Nc1cc(C)c(NC(=O)c2cccc(Br)n2)cc1C | 98.9% | 6.93% | Toxic | 42.33%
6 | 6.01 | COc1cc(NC(=O)c2cccc(Br)n2)ccc1Nc1nc(N2CCNCC2)ncc1OC | 97.4% | 10.4% | Toxic | 30.17%
7 |  | COc1cnc(N2CCNCC2)nc1Nc1ccc(NC(=O)c2cccc(Br)c2)cc1C(F)(F)F | 8.87% |  |  | 
8 |  | COc1cnc(N2CCNCC2)nc1Nc1ccc(NC(=O)c2cccc(C)n2)cc1C(F)(F)F | 11.2% |  |  | 
9 | 6.24 | COc1cnc(N2CCNCC2)nc1Nc1ccc(NC(=O)c2cccc(Br)n2)cc1C(F)(F)F | 99% | 71.7% | Non-Toxic | 41.5%
10 | 6.05 | COc1cnc(N2CCNCC2)nc1Nc1ccc(NC(=O)c2cccc(Br)n2)cc1C#N | 99% | 12.6% | Toxic | 39.5%
11 |  | COc1cc(Nc2cc(N3CCNCC3)nc(SC)n2)ccc1NC(=O)c1cccc(Br)n1 | 11.1% |  |  | 
12 | 6.43 | COc1cnc(N2CCNCC2)nc1Nc1ccc(NC(=O)c2cccc(Cl)n2)cc1C(F)(F)F | 94.1% | 52.9% | Non-Toxic | 36.83%
13 |  | COc1cc(Nc2ccnc(N3CCNCC3)n2)ccc1NC(=O)c1cccc(Br)n1 | 10.6% |  |  | 
14 |  | COc1cnc(N2CCNCC2)nc1Nc1ccc(NC(=O)c2cccs2)cc1C(F)(F)F | 4.93% |  |  | 
15 |  | COc1cc(Nc2nc(N3CCC(OC)CC3)ncc2OC)ccc1NC(=O)c1cccc(Br)n1 | 7.54% |  |  | 
16 |  | COc1cnc(N2CCNCC2)nc1Nc1ccc(NC(=O)c2ncccc2Br)cc1C(F)(F)F | 6.13% |  |  | 
17 |  | COc1cnc(N2CCNCC2)nc1Nc1ccc(NC(=O)c2ccncc2)cc1C(F)(F)F | 9.77% |  |  | 

Row | pIC50 [3] | Compound | inhibition at 1 µM [1] | inhibition at 2 µM [2] | Activity [4] | Activity [5]
18 |  | COc1cnc(N2CCNCC2)nc1Nc1ccc(NC(=O)c2cccc(Br)n2)c(C)c1 | 23.3% |  |  | 
19 |  | COc1cnc(N2CCNCC2)nc1Nc1ccc(NC(=O)c2ccccn2)cc1C(F)(F)F | 4.52% |  |  | 
20 |  | COc1cnc(N2CCNCC2)nc1Nc1ccc(NC(=O)c2cccc(F)n2)cc1C(F)(F)F | 4.48% |  |  | 
21 |  | COc1cnc(N2CCNCC2)nc1Nc1ccc(NC(=O)c2cc(Br)ccn2)cc1C(F)(F)F | 12.3% |  |  | 
22 | 6.38 | COc1cc(Nc2nc(N3CCNCC3)ncc2Br)ccc1NC(=O)c1cccc(Br)n1 | 99.3% | 38.1% | Non-Toxic | 65%
23 |  | COc1cnc(N2CCNCC2)nc1Nc1ccc(NC(=O)c2cccnc2)cc1C(F)(F)F | 4.54% |  |  | 
24 |  | COc1cc(Nc2ncnc(N3CCNCC3)n2)ccc1NC(=O)c1cccc(Br)n1 | 10.8% |  |  | 
25 |  | COc1cnc(N2CCNCC2)nc1Nc1ccc(NC(=O)c2cccc(Br)n2)cn1 | 9.96% |  |  | 
26 |  | COc1cnc(N2CCNCC2)nc1Nc1ccc(NC(=O)c2ccco2)cc1C(F)(F)F | 1.86% |  |  | 
27 |  | COc1nc(Nc2ccc(NC(=O)c3cccc(Br)n3)c(OC)c2)nc(N2CCNCC2)n1 | 4.27% |  |  | 
28 | 6.23 | COc1cc(Nc2nc(N3CCNCC3)ncc2Cl)ccc1NC(=O)c1cccc(Br)n1 | 99.2% | 10.7% | Toxic | 42.33%
29 |  | COc1cnc(N2CCNCC2)nc1Nc1ccc(NC(=O)c2cccc(Br)n2)cc1 | 17.4% |  |  | 
30 |  | COc1cnc(N2CCNCC2)nc1Nc1ccc(NC(=O)c2cccc(Br)n2)cc1C | 3.6% |  |  | 
31 |  | COc1cnc(N2CCNCC2)nc1Nc1ccc(NC(=O)c2ccncn2)cc1C(F)(F)F | 6.52% |  |  | 
32 |  | COc1cc(Nc2nc(N3C[C@@H](C)O[C@@H](C)C3)ncc2OC)ccc1NC(=O)c1cccc(Br)n1 | 8.34% |  |  | 
33 |  | COc1cc(Nc2nc(N3CCOCC3)ncc2OC)ccc1NC(=O)c1cccc(Br)n1 | 1.41% |  |  | 
34 | 6.11 | COc1cc(Nc2nc(N3CCNCC3)ncc2OC)ccc1NC(=O)c1cccc(Br)n1 | 99.3% | 59.9% | Non-Toxic | 26.5%
